Reference: patent US10695399B2, “Peptides for prevention of HIV infection” (SYRACUSE UNIVERSITY, priority 2017, dated 2020)
Residues, ends and D or L forms follow the SMILES beside them. *: point of attachment. Dansyl = CN(C)c1cccc2c(S(=O)(=O)*)cccc12

Columns and labels:
[1] = biological target: T1, SEVI (aggregated semen enhancer of virus infection) (Homo sapiens, UniProt P15309); assay: Dansyl fluorescence binding study with SEVI
T1 construct: SEVI is the aggregated portion of the human protein that promotes infectivity
T1 sequence (P15309 248-286 limits assumed): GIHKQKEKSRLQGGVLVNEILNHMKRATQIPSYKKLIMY
Experimental: FIG. 1A is a graph of fluorescence spectra of a first dansylated peptide according to the present invention in a binding study with PAP and SEVI at a first concentration;
FIG. 1B is a graph of fluorescence spectra of the first dansylated peptide according to the present invention in a binding study with PAP and SEVI at a first concentration incubated for 24 hours;
FIG. 2A is a graph of fluorescence spectra of a first dansylated peptide according to the present invention in a binding study with PAP and SEVI at a second concentration; and
FIG. 2B is a graph of fluorescence spectra of a second dansylated peptide according to the present invention in a binding study with PAP and SEVI at a second concentration.
Dansyl is the fluorescent dye that is attached to peptides. A change in Dansyl fluorescence indicates change in the environment, i.e. binding. The physiological concentration of PAP and SEVI is 5 micromolar.

[2] = Preliminary toxicity studies

Row | SMILES | Kd [1] | toxicity [2]
1 | CC[C@H](C)[C@H](NC(=O)[C@H](CCC(=O)O)NC(=O)[C@H](CCC(N)=O)NC(=O)[C@@H](NC(=O)[C@@H](NC(=O)[C@H](CCC(=O)O)NC(=O)[C@H](CCC(=O)O)NC(=O)[C@H](Cc1ccccc1)NS(=O)(=O)c1cccc2c(N(C)C)cccc12)[C@@H](C)CC)C(C)C)C(=O)N[C@@H](CCC(=O)O)C(=O)N[C@@H](CC(=O)O)C(=O)N[C@@H](Cc1ccccc1)C(=O)N[C@@H](CC(C)C)C(=O)N[C@@H](CCC(=O)O)C(=O)N[C@@H](CC(N)=O)C(=O)N[C@@H](CC(C)C)C(=O)N[C@H](C(N)=O)C(C)C [Peptide 1, FEEIVQEIEDFLENLV] (Dansyl-FEEIVQEIEDFLENLV-NH2) | < 5 µM | non-toxic
2 | CC[C@H](C)[C@H](NC(=O)CNS(=O)(=O)c1cccc2c(N(C)C)cccc12)C(=O)NCC(=O)N[C@@H](C)C(=O)N[C@H](C(=O)N[C@@H](CC(C)C)C(=O)N[C@@H](CCC(=O)O)C(=O)N[C@H](C(=O)N[C@@H](CC(C)C)C(=O)N[C@H](C(=O)N[C@H](C(=O)NCC(=O)N[C@@H](CC(C)C)C(=O)N1CCC[C@H]1C(=O)N[C@@H](C)C(=O)N[C@@H](CC(C)C)C(=O)N[C@H](C(=O)N[C@@H](CO)C(=O)N[C@@H](Cc1c[nH]c2ccccc12)C(=O)N[C@H](C(=O)N[C@@H](CCC(=O)O)C(=O)N[C@@H](CCC(=O)O)C(=O)N[C@@H](CCC(=O)O)C(=O)N[C@@H](CCC(=O)O)C(=O)N[C@@H](CCC(N)=O)C(=O)N[C@@H](CCC(N)=O)C(N)=O)[C@@H](C)CC)[C@@H](C)CC)[C@@H](C)O)[C@@H](C)O)C(C)C)C(C)C [Peptide 2] | – | non-toxic
